Data taken from patent US20040106545A1, “Compounds and methods for modulating cell adhesion” (priority 1996, published 2004).
Entries after “also recorded” stand apart in the source; their conditions may differ. Read-outs that look alike come from different tables or passages of the source. Positions of bridges follow the written chain, without caps; N, C: chain ends. Residues, ends and D or L forms follow the SMILES beside them.

What was measured:
[1] = system: MDA-MB231; experiment: Cytotoxicity, MTT assay, MDA-MB231; assay type: cell-based, human
Procedure, shortened: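 Cytotoxicity of N-Ac-CHAVC-NH2 and the control peptide N-Ac-CHGVC-NH2 was assessed by MTT reduction in human endothelial, fibroblast and cancer cell lines at concentrations up to 100 μM. Proliferation was measured separately by ^3H-thymidine incorporation over the same concentration range.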

[2] = system: Bovine pulmonary artery endothelial cells; experiment: Disruption of bovine endothelial cell adhesion; assay type: cell-based; conditions: 500 μg/ml, 30 minutes
Procedure: For use within one such assay, bovine pulmonary artery endothelial cells may be harvested by sterile ablation and digestion in 0.1% collagenase (type II; Worthington Enzymes, Freehold, N.J.). Cells may be maintained in Dulbecco's minimum essential medium supplemented with 10% fetal calf serum and 1% antibiotic-antimycotic at 37° C. in 7% CO2 in air. Cultures may be passaged weekly in trypsin-EDTA and seeded onto tissue culture plastic at 20,000 cells/cm^2. Endothelial cultures may be used at 1 week in culture, which is approximately 3 days after culture confluency is established. The cells may be seeded onto coverslips and treated (e.g., for 30 minutes) with modulating agent or a control compound at, for example, 500 μg/ml and then fixed with 1% paraformaldehyde. As noted above, disruption of cell adhesion may be determined visually within 24 hours, by observing retraction of the cells from one another. This assay evaluates the effect of a modulating agent on N-cadherin mediated cell adhesion.
Bovine pulmonary artery endothelial cells were harvested by sterile ablation and digestion in 0.1% collagenase (type II; Worthington Enzymes, Freehold, N.J.). Cells were maintained in Dulbecco's minimum essential medium (Clonetics, San Diego, Calif.) supplemented with 10% fetal calf serum (Atlantic Biologicals, Nor cross, Ga.) and 1% antibiotic-antimycotic at 37° C. in 7% CO2 in air. Cultures were passaged weekly in trypsin-EDTA (Gibco, Grand Island, N.Y.) and seeded onto tissue culture plastic at 20,000 cells/cm^2 for all experiments. Endothelial cultures were used at 1 week in culture, which is approximately 3 days after culture confluency was established. The cells used in all protocols were between 4th passage and 10th passage. The cells were seeded onto coverslips and treated 30 minutes with N—Ac-CHAVC-NH2 (SEQ ID NO:10) or N—Ac-CHGVC-NH2 (SEQ ID NO:11) at 500 μg/ml and then fixed with 1% paraformaldehyde.

[3] = system: chick embryonic chorioallantoic membranes; experiment: Chick chorioallantoic membrane angiogenesis assay; assay type: in vivo; conditions: for Percent Inhibition of Angiogenesis: 24 hours; for inhibition of angiogenesis (in words): 3, 17 and 33 μg/mesh
Procedure: Another cell adhesion assay evaluates the ability of a modulating agent to block angiogenesis (the growth of blood vessels from pre-existing blood vessels). This ability may be assayed using the chick chorioallantoic membrane assay described by Iruela-Arispe et al., Molecular Biology of the Cell 6:327-343, 1995. Briefly, a modulating agent may be embedded in a mesh composed of vitrogen at one or more concentrations (e.g., ranging from about 1 to 100 μg/mesh). The mesh(es) may then be applied to chick chorioallantoic membranes. After 24 hours, the effect of the peptide may be determined using computer assisted morphometric analysis. A modulating agent should inhibit angiogenesis by at least 25% at a concentration of 33 μg/mesh.
The chick chorioallantoic membrane assay was used to assess the effects of cyclic peptides on angiogenesis (Iruela-Arispe et al., Molecular Biology of the Cell 6:327-343, 1995). Cyclic peptides were embedded in a mesh composed of vitrogen at concentrations of 3, 17, and 33 μg/mesh. The meshes were then applied to 12-day-old chick embryonic chorioallantoic membranes. After 24 hours, the effects of the peptides on angiogenesis were assessed by computer assisted morphometric analysis.

[4] = target: T1, N-cadherin (Gallus gallus, UniProt P10288); experiment: Neurite outgrowth inhibition, rat neurons (Example 21); assay type: cell-based; conditions: 250 μg/mL; for inhibition at 250 µg/mL: read-out: % Inhibition of neurite outgrowth
T1 construct: expressed in transfected cells; host or cells: 3T3 fibroblasts (monolayer)
T1 sequence (P10288 165-912): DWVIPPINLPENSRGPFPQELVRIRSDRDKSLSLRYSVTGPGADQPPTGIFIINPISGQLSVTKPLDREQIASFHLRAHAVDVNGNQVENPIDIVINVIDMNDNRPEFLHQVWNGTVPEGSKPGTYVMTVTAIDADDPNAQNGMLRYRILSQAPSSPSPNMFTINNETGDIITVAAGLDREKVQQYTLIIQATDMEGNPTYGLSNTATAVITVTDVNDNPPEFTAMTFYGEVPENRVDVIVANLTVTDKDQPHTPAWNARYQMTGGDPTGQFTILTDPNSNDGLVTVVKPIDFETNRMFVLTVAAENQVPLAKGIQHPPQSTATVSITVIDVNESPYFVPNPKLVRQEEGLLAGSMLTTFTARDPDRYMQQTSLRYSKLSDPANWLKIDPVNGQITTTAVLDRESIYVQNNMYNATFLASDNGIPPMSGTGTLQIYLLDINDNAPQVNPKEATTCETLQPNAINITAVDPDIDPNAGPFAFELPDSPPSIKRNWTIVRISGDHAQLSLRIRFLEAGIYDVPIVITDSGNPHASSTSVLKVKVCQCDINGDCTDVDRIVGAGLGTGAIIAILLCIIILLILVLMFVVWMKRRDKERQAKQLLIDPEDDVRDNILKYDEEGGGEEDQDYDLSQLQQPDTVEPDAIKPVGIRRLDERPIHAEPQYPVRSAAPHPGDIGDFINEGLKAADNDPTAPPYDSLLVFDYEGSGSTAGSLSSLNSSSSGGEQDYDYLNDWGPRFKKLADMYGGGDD

[5] = 3 μg/mesh, absence (−) of 0.01 mM VEGF
[6] = 3 μg/mesh, presence (+) of 0.01 mM VEGF
[7] = 17 μg/mesh, absence (−) of 0.01 mM VEGF
[8] = 17 μg/mesh, presence (+) of 0.01 mM VEGF
[9] = 33 μg/mesh, absence (−) of 0.01 mM VEGF
[10] = 33 μg/mesh, presence (+) of 0.01 mM VEGF

| SMILES | IC50 [1] | effect on endothelial cell monolayer / morphology [2] | Percent Inhibition of Angiogenesis [3, 5] | Percent Inhibition of Angiogenesis [3, 6] | Percent Inhibition of Angiogenesis [3, 7] | Percent Inhibition of Angiogenesis [3, 8] | Percent Inhibition of Angiogenesis [3, 9] | Percent Inhibition of Angiogenesis [3, 10] | inhibition of angiogenesis (in words) [3] | inhibition at 250 µg/mL [4] | effect on endothelial cell monolayer / morphology ([2]; listed as N—Ac-CAHAVDIC-NH2) | IC50 ([1]; human) | inhibition of neurite outgrowth (in words) [4] |
| --- | --- | --- | --- | --- | --- | --- | --- | --- | --- | --- | --- | --- | --- |
| CC(=O)N[C@H]1CSSC[C@@H](C(N)=O)NC(=O)[C@H](CC(=O)O)NC(=O)[C@H](C(C)C)NC(=O)[C@H](C)NC(=O)[C@H](Cc2c[nH]cn2)NC(=O)[C@H](C)NC1=O [N—Ac—CAHAVDC—NH2, N-Ac-Cys-Ala-His-Ala-Val-Asp-Cys-NH2] (Ac-CAHAVDC-NH2; disulfide 1-7) | > 100 µM | endothelial cells retracted from one another; also recorded: had a slight effect | 21% | 59% | 27% | 72% | 31% | 79% | inhibited angiogenesis significantly | – | – | – | – |
| CC(=O)N[C@H]1CSSC[C@@H](C(N)=O)NC(=O)[C@H](C(C)C)NC(=O)CNC(=O)[C@H](Cc2c[nH]cn2)NC1=O [N—Ac—CHGVC—NH2, reference compound] | > 100 µM | had no affect on the cells | – | – | – | – | – | – | – | 0% | – | – | – |
| CC[C@H](C)[C@@H]1NC(=O)[C@H](CC(=O)O)NC(=O)[C@H](C(C)C)NC(=O)[C@H](C)NC(=O)[C@H](Cc2c[nH]cn2)NC(=O)[C@H](C)NC(=O)[C@@H](NC(C)=O)CSSC[C@@H](C(N)=O)NC1=O (Ac-CAHAVDIC-NH2; disulfide 1-8) | > 100 µM | – | −1%^ | 21% | 15% | 37% | 33% | 49% | inhibited angiogenesis significantly | 82% | neither of the cyclic peptides show activity; also recorded: had no effect on endothelial cell morphology | – | – |
| CC(=O)N[C@H]1CSSC[C@@H](C(N)=O)NC(=O)[C@H](C(C)C)NC(=O)[C@H](C)NC(=O)[C@H](Cc2c[nH]cn2)NC1=O [N—Ac—CHAVC—NH2, N-Ac-Cys-His-Ala-Val-Cys-NH2] | – | endothelial cells retracted from one another; also recorded: disrupted the endothelial cell monolayer | 12% | 46% | 22% | 51% | 28% | 51% | – | 65% | – | > 100 µM | significantly inhibited neurite outgrowth |
